This experiment concerns Plutella xylostella. Kind of experiment: Plutella xylostella leaf dip method (cabbage leaves). The format is in vivo. Conditions: foliar, second instar larvae, 72 h after release, dead and moribund combined, compared to untreated control, read-out: Percent mortality. The protocol:
The leaf dip method was used for testing, wherein the required quantity of the compounds were weighed and dissolved in a surfactant solution, kept on a Vortex at 2000 rpm with zirconia beads for 90 min for proper mixing and then diluted with 0.01% Triton-X solution to the desired test concentration. Cabbage leaves were dipped in the solution for 10 seconds, shade dried for 20 min and then transferred to bioassay trays. A single second instar larva was released into each bioassay tray cell and the tray was covered with a lid. The bio-assay trays were kept under laboratory conditions at a temperature of 25° C. and relative humidity of 70%. Observations on dead, moribund and living larvae were recorded at 72 h after the release. Percent mortality was calculated by combining dead and moribund larvae and comparing the result to the one of the untreated control.

SMILES strings stand for the structures.

Usually mortality stands for the percentage killed. On to `CCS(=O)(=O)c1cc2cc(C(F)(F)F)ccn2c1-c1nc2cc(C(F)(F)F)cnc2n1C` [Compound 5, 2-(2-(Ethylsulfonyl)-7-(trifluoromethyl)indolizin-3-yl)-3-methyl-6-(trifluoromethyl)-3H-imidazo[4,5-b]pyridine], for which the mortality at 300 ppm was above 70%. As to `CCS(=O)(=O)c1cc2c(-c3cc(Cl)cc(Cl)c3)cccn2c1-c1nc2cc(C(F)(F)F)cnc2n1C` [Compound 6, 2-(8-(3,5-Dichlorophenyl)-2-(ethylsulfonyl)indolizin-3-yl)-3-methyl-6-(trifluoromethyl)-3H-imidazo[4,5-b]pyridine], the mortality at 300 ppm is above 70%. To `CCS(=O)(=O)c1nn2c(C)cc(C)nc2c1-c1nc2cc(C(F)(F)F)ncc2n1C` [Compound 12, 2-(2-(Ethylsulfonyl)-5,7-dimethylpyrazolo[1,5-a]pyrimidin-3-yl)-3-methyl-6-(trifluoromethyl)-3H-imidazo[4,5-c]pyridine] belongs above 70%. To `CCS(=O)(=O)c1nn2cccnc2c1-c1nc2cc(S(=O)(=O)C(F)(F)F)ccc2o1` [Compound 18, 2-(2-(Ethylsulfonyl)pyrazolo[1,5-a]pyrimidin-3-yl)-5-((trifluoromethyl)sulfonyl)benzo[d]oxazole] belongs above 70%; to `CCSc1nn2c(-c3ccc(F)cc3)ccnc2c1-c1nc2cc(C(F)(F)F)ncc2n1C` [Compound 20, 2-(2-(Ethylthio)-7-(4-fluorophenyl)pyrazolo[1,5-a]pyrimidin-3-yl)-3-methyl-6-(trifluoromethyl)-3H-imidazo[4,5-c]pyridine], above 70%. For `CCSc1nn2c(-c3ccc(OC(F)(F)F)cc3)ccnc2c1-c1nc2cc(C(F)(F)F)cnc2n1C` [Compound 27, 2-(2-(Ethylthio)-7-(4-(trifluoromethoxy)phenyl)pyrazolo[1,5-a]pyrimidin-3-yl)-3-methyl-6-(trifluoromethyl)-3H-imidazo[4,5-b]pyridine] the value was above 70%; for `CCS(=O)(=O)c1nn2c(-c3ccc(OC(F)(F)F)cc3)ccnc2c1-c1nc2cc(C(F)(F)F)cnc2n1C` [Compound 29, 2-(2-(Ethylsulfonyl)-7-(4-(trifluoromethoxy)phenyl)pyrazolo[1,5-a]pyrimidin-3-yl)-3-methyl-6-(trifluoromethyl)-3H-imidazo[4,5-b]pyridine], above 70%.

Take `CCS(=O)(=O)c1nn2c(-c3ccc(OC(F)(F)F)cc3)ccnc2c1-c1nc2cc(C(F)(F)F)ncc2n1C` [Compound 30, 2-(2-(Ethylsulfonyl)-7-(4-(trifluoromethoxy)phenyl)pyrazolo[1,5-a]pyrimidin-3-yl)-3-methyl-6-(trifluoromethyl)-3H-imidazo[4,5-c]pyridine]: the mortality at 300 ppm is above 70%.

Take `CCS(=O)(=O)c1nn2c(-c3ccc(F)cc3)ccnc2c1-c1nc2cc(S(=O)(=O)C(F)(F)F)ccc2o1` [Compound 34, 2-(2-(Ethylsulfonyl)-7-(4-fluorophenyl)pyrazolo[1,5-a]pyrimidin-3-yl)-5-((trifluoromethyl)sulfonyl)benzo[d]oxazole]: the mortality at 300 ppm was above 70%.

For the compound `CCSc1nn2c(-c3ccc(Cl)cc3)ccnc2c1-c1nc2cc(C(F)(F)F)ncc2n1C` [Compound 35, 2-(7-(4-Chlorophenyl)-2-(ethylthio)pyrazolo[1,5-a]pyrimidin-3-yl)-3-methyl-6-(trifluoromethyl)-3H-imidazo[4,5-c]pyridine], the mortality at 300 ppm is above 70%. To `CCS(=O)(=O)c1nn2c(-c3ccc(Cl)cc3)ccnc2c1-c1nc2cc(S(=O)(=O)C(F)(F)F)ccc2o1` [Compound 40, 2-(7-(4-Chlorophenyl)-2-(ethylsulfonyl)pyrazolo[1,5-a]pyrimidin-3-yl)-5-((trifluoromethyl)sulfonyl)benzo[d]oxazole] belongs above 70%. For `CCS(=O)(=O)c1nn2c(-c3cc(Cl)cc(Cl)c3)ccnc2c1-c1nc2cc(S(=O)(=O)C(F)(F)F)ccc2o1` [Compound 43, 2-(7-(3,5-Dichlorophenyl)-2-(ethylsulfonyl)pyrazolo[1,5-a]pyrimidin-3-yl)-5-((trifluoromethyl)sulfonyl)benzo[d]oxazole] the value was above 70%; for `CCS(=O)(=O)c1nn2ccc(-c3ccccc3)nc2c1-c1nc2cc(C(F)(F)F)ncc2n1C` [Compound 46, 2-(2-(Ethylsulfonyl)-5-phenylpyrazolo[1,5-a]pyrimidin-3-yl)-3-methyl-6-(trifluoromethyl)-3H-imidazo[4,5-d]pyridine], above 70%; for `CCSc1nn2cc(Cl)cnc2c1-c1nc2cc(C(F)(F)F)cnc2n1C` [Compound 48, 2-(6-Chloro-2-(ethylthio)pyrazolo[1,5-a]pyrimidin-3-yl)-3-methyl-6-(trifluoromethyl)-3H-imidazo[4,5-b]pyridine], above 70%. For `CCS(=O)(=O)c1nn2ccc(-c3ccc(F)cc3)nc2c1-c1nc2cc(C(F)(F)F)cnc2n1C` [Compound 62, 2-(2-(Ethylsulfonyl)-5-(4-fluorophenyl)pyrazolo[1,5-a]pyrimidin-3-yl)-3-methyl-6-(trifluoromethyl)-3H-imidazo[4,5-b]pyridine] the value was above 70%; for `CCS(=O)(=O)c1nn2cc(-c3ccccc3)cnc2c1-c1nc2cc(C(F)(F)F)ncc2n1C` [Compound 66, 2-(2-(Ethylsulfonyl)-6-phenylpyrazolo[1,5-a]pyrimidin-3-yl)-3-methyl-6-(trifluoromethyl)-3H-imidazo[4,5-c]pyridine], above 70%; for `CCS(=O)(=O)c1nn2ccc(-c3cc(Cl)cc(Cl)c3)nc2c1-c1nc2cc(C(F)(F)F)cnc2n1C` [Compound 67, 2-(5-(3,5-Dichlorophenyl)-2-(ethylsulfonyl)pyrazolo[1,5-a]pyrimidin-3-yl)-3-methyl-6-(trifluoromethyl)-3H-imidazo[4,5-b]pyridine], above 70%. With `CCS(=O)(=O)c1nn2ccc(-c3cc(Cl)cc(Cl)c3)nc2c1-c1nc2cc(C(F)(F)F)ncc2n1C` [Compound 69, 2-(5-(3,5-Dichlorophenyl)-2-(ethylsulfonyl)pyrazolo[1,5-a]pyrimidin-3-yl)-3-methyl-6-(trifluoromethyl)-3H-imidazo[4,5-c]pyridine], the mortality at 300 ppm is above 70%. With `CCSc1nn2cc(Br)cnc2c1-c1nc2cc(C(F)(F)F)cnc2n1C` [Compound 70, 2-(6-Bromo-2-(ethylthio)pyrazolo[1,5-a]pyrimidin-3-yl)-3-methyl-6-(trifluoromethyl)-3H-imidazo[4,5-b]pyridine], the mortality at 300 ppm is above 70%.

On to `CCS(=O)(=O)c1nn2cc(-c3ccc(Cl)cc3)cnc2c1-c1nc2cc(C(F)(F)F)ncc2n1C` [Compound 74, 2-(6-(4-Chlorophenyl)-2-(ethylsulfonyl)pyrazolo[1,5-a]pyrimidin-3-yl)-3-methyl-6-(trifluoromethyl)-3H-imidazo[4,5-c]pyridine], for which the mortality at 300 ppm was above 70%.

For `CCSc1nn2cc(-c3cc(Cl)cc(Cl)c3)cnc2c1-c1nc2cc(C(F)(F)F)ncc2n1C` [Compound 80, 2-(6-(3,5-Dichlorophenyl)-2-(ethylthio)pyrazolo[1,5-a]pyrimidin-3-yl)-3-methyl-6-(trifluoromethyl)-3H-imidazo[4,5-c]pyridine], the mortality at 300 ppm was above 70%. For `CCS(=O)(=O)c1nn2cc(-c3cc(Cl)cc(Cl)c3)cnc2c1-c1nc2cc(C(F)(F)F)ncc2n1C` [Compound 81, 2-(6-(3,5-Dichlorophenyl)-2-(ethylsulfonyl)pyrazolo[1,5-a]pyrimidin-3-yl)-3-methyl-6-(trifluoromethyl)-3H-imidazo[4,5-c]pyridine] the value was above 70%. For `CCS(=O)(=O)c1nn2ccc(-c3ccc(Cl)cc3)nc2c1-c1nc2cc(C(F)(F)F)cnc2n1C` [Compound 88, 2-(5-(4-Chlorophenyl)-2-(ethylsulfonyl)pyrazolo[1,5-a]pyrimidin-3-yl)-3-methyl-6-(trifluoromethyl)-3H-imidazo[4,5-b]pyridine], the mortality at 300 ppm is above 70%. In the case of `CCSc1nn2cc(-c3ccc(OC(F)(F)C(F)F)cc3)cnc2c1-c1nc2cc(C(F)(F)F)cnc2n1C` [Compound 95, 2-(2-(Ethylthio)-6-(4-(1,1,2,2-tetrafluoroethoxy)phenyl)pyrazolo[1,5-a]pyrimidin-3-yl)-3-methyl-6-(trifluoromethyl)-3H-imidazo[4,5-b]pyridine], the mortality at 300 ppm is above 70%. In the case of `CCS(=O)(=O)c1nn2cc(-c3ccc(OC(F)(F)C(F)F)cc3)cnc2c1-c1nc2cc(C(F)(F)F)cnc2n1C` [Compound 96, 2-(2-(Ethylsulfonyl)-6-(4-(1,1,2,2-tetrafluoroethoxy)phenyl)pyrazolo[1,5-a]pyrimidin-3-yl)-3-methyl-6-(trifluoromethyl)-3H-imidazo[4,5-b]pyridine], the mortality at 300 ppm is above 70%. For `CCS(=O)(=O)c1nn2cc(-c3ccc(OC(F)(F)F)cc3)cnc2c1-c1nc2cc(C(F)(F)F)ncc2n1C` [Compound 100, 2-(2-(Ethylsulfonyl)-6-(4-(trifluoromethoxy)phenyl)pyrazolo[1,5-a]pyrimidin-3-yl)-3-methyl-6-(trifluoromethyl)-3H-imidazo[4,5-c]pyridine] the value was above 70%.

Take `CCS(=O)(=O)c1nn2c(-c3cccc(Cl)c3Cl)ccnc2c1-c1nc2cc(C(F)(F)F)cnc2n1C` [Compound 114, 2-(7-(2,3-Dichlorophenyl)-2-(ethylsulfonyl)pyrazolo[1,5-a]pyrimidin-3-yl)-3-methyl-6-(trifluoromethyl)-3H-imidazo[4,5-b]pyridine]: the mortality at 300 ppm is above 70%. To `CCS(=O)(=O)c1nn2c(-c3ccccc3)ccnc2c1-c1nc2cc(C(F)(F)F)cnc2n1C` [Compound 115, 2-(2-(Ethylsulfonyl)-7-phenylpyrazolo[1,5-a]pyrimidin-3-yl)-3-methyl-6-(trifluoromethyl)-3H-imidazo[4,5-b]pyridine] belongs above 70%.

The values are drawn from patent US12384787B2, “Fused heterocyclic compounds and their use as pest control agents” (PI INDUSTRIES LTD., priority 2019, dated 2025).
